According to US20260108463A1, “NANOEMULSION FORMULATION WITH IMPROVED TACROLIMUS STABILITY AND SKIN PENETRATION” (BIOFRONTERA BIOSCIENCE GMBH, priority 2023, published 2026):
Read-outs that look alike come from different tables or passages of the source.

Key:
[1] = Solubility test of tacrolimus by visual observation; assay type: physicochemical; conditions: aqueous nanoemulsion BF200 (at least 90% water content), aqueous with cosolvent or surfactant or cyclodextrin
Method: Tacrolimus was dissolved by mechanical techniques (stirring). Determination of a complete solution of substance was based on visual observation. A complete dissolution was defined as a clear solution with no signs of cloudiness or precipitation. The pure solvents were used as reference.
Samples were prepared as explained in Example D. The compound was dissolved in 10 mM Phosphate buffer (TC2) at defined concentration (see table below). For samples TC3, TC4 and TC5 the lipid phase (intermediate) of nanoemulsion BF200 was used as solvent. In a first step, Tacrolimus was dissolved in the lipid phase, followed by the preparation of the nanoemulsion by combining the aqueous phase with the lipid phase (containing Tacrolimus). Samples TC4 and TC5 were stored at 5° C. and 25° C. for a period of 6 months.

[2] = cited from earlier work
[3] = cited from earlier work; remark: listed apart in the source

In the case of `C=CC[C@@H]1/C=C(\C)C[C@H](C)C[C@H](OC)[C@H]2O[C@@](O)(C(=O)C(=O)N3CCCC[C@H]3C(=O)O[C@H](/C(C)=C/[C@@H]3CC[C@@H](O)[C@H](OC)C3)[C@H](C)[C@@H](O)CC1=O)[C@H](C)C[C@@H]2OC` [Tacrolimus], the solubility [1] is given as at least 2000 µg/mL, the logP [2] is given as over 3 and the “Stability in aqueous formulations” value ([3]; 5° C., prior-art aqueous formulations (suspensions)) is given as “up to 9 months”. The “Stability in aqueous formulations” value ([3]; room temperature, prior-art aqueous formulations (suspensions)) was “approx. 3 months” and the “Stability in aqueous formulations” value ([3]; room temperature, prior-art aqueous formulations) was “approx. 90 days”.
